Measurements from ChEMBL document CHEMBL5726701, “Pyrazine derivatives as phosphatidylinositol 3-kinase inhibitors” (2018).

Target: Phosphatidylinositol 3-kinase catalytic subunit type 3 (Homo sapiens, UniProt Q8NEB9)
Experiment: Kinase Glo Luminescent Kinase Assay: PI 3-Kinase Alpha (A), Pb 3-Kinase Beta (B), Vps34 (C), PI 4-Kinase Beta (D):The luminescence-based ATP detection reagent KinaseGlo was obtained from Promega, (Cat. No. V6714, Lot No. 236161) through Catalys, Wallisellen, Switzerland. L-alpha-phosphatidylinositol (PI, liver, bovine) was obtained from Avanti Polar Lipid (Cat. No. 840042C, Lot#LPI-274), Phosphatidylinositol-4,5-bisphosphate (PIP(4,5)2) was also obtained from Avanti Polar Lipid (Cat. No. 840046X). L-α-Phosphatidylserine (PS) was obtained from Avanti Polar Lipid (Cat. No. 840032C), n-Octylglucoside from Avanti Polar Lipid (Cat. No. 10634425001). Luminescence is a well established readout to determine ATP concentrations and can thus be used to follow the activity of many kinases regardless of their substrate. The Kinase Glo Luminescent Kinase Assay (Promega, Madison/WI, USA) is a homogeneous HTS method of measuring kinase activity by quantifying the amount of ATP remaining in solution following a kinase reaction.

Chain of Phosphatidylinositol 3-kinase catalytic subunit type 3 (Q8NEB9 whole entry): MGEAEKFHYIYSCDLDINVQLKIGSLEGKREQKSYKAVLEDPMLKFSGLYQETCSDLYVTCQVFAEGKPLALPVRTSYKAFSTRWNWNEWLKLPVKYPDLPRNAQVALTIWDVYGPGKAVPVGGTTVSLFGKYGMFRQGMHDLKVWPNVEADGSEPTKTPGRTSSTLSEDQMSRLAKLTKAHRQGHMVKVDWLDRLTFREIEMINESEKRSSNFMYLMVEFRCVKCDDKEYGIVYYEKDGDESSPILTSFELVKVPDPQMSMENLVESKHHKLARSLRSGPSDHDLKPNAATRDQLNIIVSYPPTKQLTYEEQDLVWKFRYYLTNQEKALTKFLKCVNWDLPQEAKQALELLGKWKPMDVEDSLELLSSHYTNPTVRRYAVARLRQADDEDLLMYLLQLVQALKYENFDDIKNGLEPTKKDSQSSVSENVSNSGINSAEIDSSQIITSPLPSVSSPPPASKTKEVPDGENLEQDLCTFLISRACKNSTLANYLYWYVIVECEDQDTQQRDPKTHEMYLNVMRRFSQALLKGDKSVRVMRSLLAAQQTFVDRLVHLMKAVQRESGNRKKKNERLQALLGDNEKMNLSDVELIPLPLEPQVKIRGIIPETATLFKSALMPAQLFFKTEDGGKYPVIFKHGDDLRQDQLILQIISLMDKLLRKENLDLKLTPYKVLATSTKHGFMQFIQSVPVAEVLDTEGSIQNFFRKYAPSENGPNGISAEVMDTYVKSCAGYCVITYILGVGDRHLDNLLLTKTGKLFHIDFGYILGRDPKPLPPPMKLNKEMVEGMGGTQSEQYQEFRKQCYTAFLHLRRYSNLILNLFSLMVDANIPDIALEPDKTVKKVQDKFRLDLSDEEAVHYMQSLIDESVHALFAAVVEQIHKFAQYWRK

SMILES | IC50 [µM]
Cc1ccc(S(=O)(=O)N[C@H]2CC[C@H](O)CC2)cc1-c1cncc(-c2csc(CN3CCOCC3)c2)n1 | 8.6
Cc1ccc(S(=O)(=O)NC2CC3(CC(O)C3)C2)cc1-c1cncc(-c2cn(C)nc2C)n1 (centres undefined) | 9.4
Cc1cc(-c2cncc(-c3cc(S(=O)(=O)NC[C@H]4C[C@@H](O)C4)ccc3C)n2)n(C)n1 | 2.45
Cc1ccc(S(=O)(=O)NC[C@H]2C[C@@H](O)C2)cc1-c1cncc(-c2cn(C)nc2C)n1 | 4.4
